{"source": "paper PMC7782499", "about": "“Progerinin, an optimized progerin-lamin A binding inhibitor, ameliorates premature senescence phenotypes of Hutchinson-Gilford progeria syndrome” (Communications Biology, 2021)", "key": {"[1]": {"assay": "Liver microsomal stability, rat", "assay_type": "in vitro ADME", "conditions": "liver microsomes, read-out: Liver microsomal stability (% remaining during 30min)", "method": "For PK analysis, 5 mg/kg of JH4 in 10% DMSO, 5% […] solution were intravenously injected and 10 mg/kg of JH4 in 10% NMP and 90% PEG400 solution were orally delivered. At pre-set time-points, blood concentration of JH4 was determined by LC-MS/MS analysis[22],[23]. Other chemicals were also tested using similar protocol. In vitro ADME studies (plasma protein binding, CYP inhibition, microsomal stability, plasma stability, and hERG inhibition) were performed by New Drug Development Center (Daegu, Korea) using standard protocols[24],[25]."}, "HGPS cells": {"system": "HGPS cells", "assay": "SA-β-gal staining senescence assay in HGPS cells", "assay_type": "cell-based, human", "description": "Fig. S3. Chemical screening with JH4 derivatives (a total of 53 chemicals except JH010 and SLC -D011 were used). A. Summarized tables for effects of JH4 derivatives. ‘+’ means s t re ngt h of binding affinity or expression level after treatment of chemicals. Middle columns of tables show binding affinity between progerin and lamin A. Third columns of tables show level of progerin expression. […]\nsevere cytotoxicity (cell death or none). B , C, and D. Examples of screening based on pull-down assay. All chemicals were tested using GST pull-down assay. […]\ninhibition activity than JH4. E. Generation of J H4 derivatives. To prevent rapid digestion in vivo, side chain was replaced by amide bond (J H010) or ether bond (SLC-D011).\nH3K9me3 levels after treatment with J H010 and D011 in HGPS cells (n = 3 independent experiments; two- […]\nwith J H4, JH010, and SLC-D011 in HGPS cells (n = 3 independent experiments; two- tailed Student’s t- […]\nfibroblasts from normal person and patients with HGPS (n = 3 independent experiments; two- tailed Student’s t -test), **p < 0.001, *p< 0.05. I. Transcriptional levels of progerin are not affected by treatment with SLC-D011. Total RNA was extracted after treatment with SLC-D011 for 7 days. The PCR products correspond to wild- type prelamin A and progerin transcripts. […]"}, "Lmna G609G/+ mouse": {"system": "Lmna G609G/+ mouse", "assay": "Histology analysis (Masson Trichrome, H&E)", "assay_type": "in vivo", "conditions": "Lmna G609G/+ mice, oral 50 mg/kg daily, 8 weeks", "method": "Tissue specimens were fixed in 4% PFA and embedded in paraffin. Paraffin blocks were sectioned and transferred onto adhesive-coated slides. After deparaffinization and rehydration, tissue sections were stained with Masson Trichrome. Histology analysis was performed by BioLead Inc. (Seoul, Korea).\nFig. S11. Histological analysis of age- matched Lmna+/+ mice (left), untreated Lamn G609G/+ mice (middle) and progerinin- treated LmnaG609G/+ mice (right, Lmna +/+: n = 4; un tr e at e d Lmna G609G/+: n = 6; pr o ge r in -treated LmnaG609G/+: n=6). A -C. Masson Trichrome staining for fibrosis analysis was performed after 8-week treatment. A. Reduction of fibrosis in heart after administration of progeirnin in L mn a G609G transgenic mice.\nThe collagen-rich fibrotic area (blue) is widely distributed in untreated LmnaG609G/+ mi c e compared to Lmna+/+ and progerin- treated LmnaG609G/+ mi c e. B. Fibrosis in liver of Lmna G609G transgenic mice was reduced by progerinin. C. Unt r eat ed LmnaG609G/+ mi c e show a relatively loose connection between blood vessel walls and tissues in lungs. D -E. Hematoxylin and Eosin (H&E) staining was performed to compare skin and bones of Lmna +/+ and LmnaG609G mice. Conditions of foot pad skin (D), vertebra (E), and femur (F) of Lmna +/+ and progerin-treated LmnaG609G/+ mice were better than those of untreated Lmna G609G/+ mice. […]"}}}
{"smiles": "CC1(C)Oc2cc3oc(=O)ccc3cc2C[C@@H]1OC/C=C/c1ccccc1", "note": "[SLC-D011]", "values": [{"measurement": "remaining at 0.5 h", "setting": "[1]", "value": 17.4, "unit": "%"}, {"measurement": "Cellular senescence (SA-β-gal staining)", "setting": "HGPS cells", "value": "could block cellular senescence"}, {"measurement": "Fibrosis in heart and liver (Masson Trichrome)", "setting": "Lmna G609G/+ mouse", "value": "reduced"}]}
